Assay results reported in patent publication US8765783B2, “Pharmaceutical composition for treatment of disease due to vascular constriction or vasodilation” (Ono Pharmaceuticals Co., Ltd., priority 2002, dated 2014).
“Also recorded” adds a separate entry of the source.

Tests used:
[1] = system: rat removed thoracic aorta; assay: Vasoconstrictive action of rat removed thoracic aorta by S1P or phenylephrine; conditions: for constriction of rat thoracic aorta: phenylephrine 10 μM (positive control), S1P 10 μM
Description: The removed thoracic aorta of euthanized SD rat (7-13 weeks old) was immersed in Krebs-Henseleit solution [112 mmol/L sodium chloride, 5.9 mmol/L potassium chloride, 2.0 mmol/L calcium chloride, 1.2 mmol/L magnesium chloride, 1.2 mmol/L monobasic sodium phosphate, 25.0 mmol/L sodium hydrogen carbonate NaHCO3, 11.5 mmol/L glucose, saturated by mixed gas (95% O2+5% CO2)]. They were divided by 3-4 mm with ophthalmic scissors and made as vortical samples. Made samples were hung in magnus tube (volume: 10 mL) filled with Krebs-Henseleit solution [37±1° C., aerated with mixed gas (95% O2+5% CO2)] using a hook. Next, they were loaded with 0.5 g resting tension stabilized for about 60 minutes, then constrictive movement was recorded on a recorder through strain compression amplifier (AP-601G, Nihon Kohden) from Force displacement transducer (FD pickup TB-611T). Sympathetic nerve stimulant, phenylephrine, (10 μM) is used as positive control for constriction action. After that, S1P (10 μM) adding, vasoconstrictive action was measured. As a result, phenylephrine and S1P constricted rat thoracic aorta.

SD rat = assay: Increase of rat blood pressure by S1P; type: in vivo; conditions: anesthetized male SD rat
Method: Male SD Rat (8 weeks old-10 weeks old) was anesthetized by injection of pentobarbital sodium (50 mg/mL/kg), after midline incision in the cervical region, trachea was exposed by exfoliation of tracheal muscle layer and cannula made of polyethylene was inserted into trachea. Next, catheter made of polyethylene was inserted into the common carotid artery and the common jugular vein. Catheter inserted into the common carotid artery was connected to the piezotransducer and the blood pressure was recorded on the recorder through strain compression amplifier. After the above mentioned operation was finished, in the case of the spinal chord was broken, the spinal chord was broken by insertion of stainless pole into the spinal chord cavity. After the spinal chord was broken, tracheal cannula was immediately connected into the artificial breathing device for small animals and artificial ventilation was performed under the conditions of a ventilatory volume 6 mL/kg and velocity 60 times/min. After then, S1P was administered and we confirmed blood pressure was increased. […] As a result, the compound (3) inhibited the increase of blood pressure by S1P.

removed rat heart = assay: Removed rat heart (Langendorff heart); conditions: Langendorff heart mode; for contractive force of heart muscle: EDG-5 antagonist
Description: Rat (CD(SD)IGS, male, Charles River Japan Inc., 8 weeks old-10 weeks old, 300-450 g) was anesthetized by diethylether, opened the abdominal cavity, injected intravenously with heparin and then, exsanguinated to death. The heart was quickly removed by opening the chest cavity and the removed heart was immersed into cooled Krebs-Henseleit solution. The tissues were trimmed away under the cooling, aortic arches were inserted into the heart functional measuring equipment and fixed with sutures without leaking out. The rat heart function was measured using the heart functional measuring equipment (model IPH-W2, Labo-support). The equipment was used in the Langendorff Heart mode (non-working heart mode) and load was 68-70 mmHg. […] Catheter filled with physiological saline was inserted into the left ventricle, the catheter was connected to the piezotransducer (DX-100, Nihon Kohden) and the left ventricle pressure (LVP) was measured through strain compression amplifier (AP-601G, Nihon Kohden). Heart rate was calculated using LVP data with the heart rate measuring equipment (AT-601G, Nihon Kohden) and dLVP/dt was calculated with differential processor (EQ-641G, Nihon Kohden). Probes of electromagnetic flowmeter (model FF-020T, inside diameter 2 mm, Nihon Kohden) were set on the way to the passage of nutrient solution and the flow rate of nutrient solution (corresponding the blood flow rate of coronary artery) was measured using electromagnetic flowmeter (MFV-3100, Nihon Kohden). Administration of S1P and the compounds was performed by injection of dilution with nutrient solution into the passage of nutrient solution using infusion pump. The injection rate of drug solution was set as the flow rate of nutrient solution before starting of administration. […] Using the above mentioned model, effect of EDG-5 antagonist on heart function was examined. […] EDG-5 antagonist, the compound (1), the compound (2) and the compound (3) increased the flow rate of nutrient solution. In addition, they increased contractive force of heart muscle at the same time. […] It was considered that S1P had no direct chronotropic action and inotropic action on pacemaker and heart muscle and S1P had lowering effect on heart function by contracting the coronary blood vessels and ischemia.

[2] = system: canine removed basilar artery; assay: Vasoconstrictor action of canine removed basilar artery by S1P; design: species or system canine (beagle); conditions: for constriction of canine basilar arteries: serotonin 1 μM (positive control), S1P 10 μM; for inhibitory effect on vasoconstrictive action of canine basilar artery by S1P: 10 μM test compound added 20 minutes after S1P (10 μM)
Description: (§1) The removed basilar arteries of euthanized male beagle (12 months old) was immersed in Krebs-Henseleit solution [112 mmol/L sodium chloride, 5.9 mmol/L potassium chloride, 2.0 mmol/L calcium chloride, 1.2 mmol/L magnesium chloride, 1.2 mmol/L monobasic sodium phosphate, 25.0 mmol/L sodium hydrogen carbonate NaHCO3, 11.5 mmol/L glucose, saturated by mixed gas (95% O2+5% CO2)]. They were divided by 3-4 mm with ophthalmic scissors and made as ringed samples. Made ringed tissues were hung in magnus tube (volume: 10 mL) filled with Krebs-Henseleit solution [37±1° C., aerated with mixed gas (95% O2+5% CO2)] using a hook. Next, they were loaded with 1 g resting tension stabilized for about 60 minutes, then constrictive movement was recorded on a recorder through strain compression amplifier (AP-601G, Nihon Kohden) from Force displacement transducer (FD pickup TB-611T). Serotonin (1 μM) is used as positive control for constriction action. After that, S1P (10 μM) adding, vasoconstrictive action was measured. As a result, serotonin and S1P constricted basilar arteries.
As a result, test compounds having EDG-5 antagonist activity inhibited vasoconstrictive action by S1P.

[3] = system: canine removed renal artery; assay: Vasoconstrictor action of canine renal artery by S1P; design: species or system canine (beagle); conditions: for constriction of canine renal arteries: serotonin 1 μM (positive control), S1P 10 μM; for inhibitory effect on vasoconstrictive action of canine renal arteries by S1P: 10 μM test compound added 40 minutes after S1P
Description: as §1, with “renal” for “basilar”

human EDG-5 = target: T1, human EDG-5 (Homo sapiens, UniProt O95136); assay: Antagonistic activity for EDG-5 by monitoring concentration change of intracellular calcium ion; type: cell-based; conditions: CHO cells overexpressing human EDG-5; S1P 100 nM
T1 construct: expressed in transfected cells; host or cells: CHO cells
T1 sequence (O95136 whole entry): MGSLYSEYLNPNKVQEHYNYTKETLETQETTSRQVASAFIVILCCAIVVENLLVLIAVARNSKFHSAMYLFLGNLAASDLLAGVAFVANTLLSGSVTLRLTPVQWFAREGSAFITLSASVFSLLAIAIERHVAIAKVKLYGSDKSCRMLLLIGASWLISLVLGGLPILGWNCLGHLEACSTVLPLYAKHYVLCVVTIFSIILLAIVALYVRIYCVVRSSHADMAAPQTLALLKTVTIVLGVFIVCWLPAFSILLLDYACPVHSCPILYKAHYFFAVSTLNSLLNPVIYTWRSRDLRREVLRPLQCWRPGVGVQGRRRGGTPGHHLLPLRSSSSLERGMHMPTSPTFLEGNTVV
Method: Chinese hamster ovary (CHO) cells overexpressed human EDG-5 gene were cultured in Ham's F12 medium (GIBCO BRL) containing 10% FBS (fetal bovine serum), penicillin/streptomycin, and blasticidin (5 μg/ml). Cultured cells were incubated in a Fura2 (5 μM)-AM solution [Ham's F12 medium containing FBS (10%), HEPES buffer (20 mM, pH7.4), and probenecid (2.5 mM)] at 37° C. for 60 minutes. Then they were washed once with a Hank's solution (2.5 mM) containing probenecid and immersed into the same solution. A plate was set on a fluorescent drug screening system, and the concentration of intracellular calcium ion was measured for 30 seconds with no stimulation. A solution of a compound (dimethyl sulfoxide (DMSO) solution of 1 nM to 10 μM at the final concentration) to be tested was added. After lapse of 5 minutes, S1P (final concentration: 100 nM) was added, the concentration of intracellular calcium ion before and after the addition was measured every 3 seconds (excitation wave length: 340 nm and 380 nm; fluorescent wave length: 500 nm). […]

canine thoracic aorta = assay: Vasoconstrictive action of canine thoracic aorta by S1P
human EDG-3 = target: T2, human EDG-3 (Homo sapiens, UniProt Q99500); assay: Antagonist evaluation for EDG-3, intracellular calcium ion; type: cell-based; conditions: cells overexpressing human EDG-3
T2 construct: expressed in transfected cells
T2 sequence (Q99500 whole entry): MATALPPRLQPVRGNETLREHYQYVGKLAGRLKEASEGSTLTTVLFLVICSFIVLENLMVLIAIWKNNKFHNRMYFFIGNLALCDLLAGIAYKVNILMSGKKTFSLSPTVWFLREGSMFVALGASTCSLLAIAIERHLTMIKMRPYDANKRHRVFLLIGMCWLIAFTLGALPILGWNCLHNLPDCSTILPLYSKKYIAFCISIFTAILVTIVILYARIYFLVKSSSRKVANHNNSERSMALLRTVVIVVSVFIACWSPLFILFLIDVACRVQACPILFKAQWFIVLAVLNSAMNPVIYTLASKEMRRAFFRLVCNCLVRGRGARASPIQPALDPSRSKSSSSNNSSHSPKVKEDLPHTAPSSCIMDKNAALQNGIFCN

[4] = system: rabbit vasoconstrictive action by S1P; assay: Rabbit vasoconstrictive action by S1P
human EDG-1 = target: T3, human EDG-1 (Homo sapiens, UniProt P21453); assay: Antagonist evaluation for EDG-1, intracellular calcium ion; type: cell-based; conditions: cells overexpressing human EDG-1
T3 construct: expressed in transfected cells
T3 sequence (P21453 whole entry): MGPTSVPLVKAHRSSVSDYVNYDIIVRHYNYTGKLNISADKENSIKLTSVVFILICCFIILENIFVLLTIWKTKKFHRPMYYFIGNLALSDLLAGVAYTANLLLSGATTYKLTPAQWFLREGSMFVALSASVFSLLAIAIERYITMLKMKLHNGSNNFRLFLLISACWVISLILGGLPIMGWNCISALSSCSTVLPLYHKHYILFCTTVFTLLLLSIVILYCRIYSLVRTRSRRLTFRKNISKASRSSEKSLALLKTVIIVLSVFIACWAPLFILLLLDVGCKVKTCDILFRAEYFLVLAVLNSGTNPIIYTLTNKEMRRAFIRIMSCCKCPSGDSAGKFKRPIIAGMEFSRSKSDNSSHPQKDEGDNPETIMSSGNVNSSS

rabbit thoracic aorta = assay: Vasoconstrictive action of rabbit thoracic aorta by S1P
[5] = system: removed rabbit portal vein/mesenteric vein; assay: Constriction of the removed rabbit vein by S1P
Method: The portal vein/mesenteric vein was removed form male rabbit (NZ White, about 2 kg) under anesthesia and vertical sample of width 2-3 mm and length 3-4 mm was made. Made samples were hung in magnus tube (volume: 5 mL) filled with Krebs-Henseleit solution (37° C.) using a hook. They were loaded with 0.5 g resting tension stabilized for about 60 minutes, then constrictive movement was recorded on a recorder (linear recorder WR3320: Graphtec Corp.) through strain compression amplifier (AP-601G, Nihon Kohden) from Force displacement transducer (FD pickup TB-611T).

[6] = system: rat removed basilar artery; assay: Vasoconstrictor action of rat removed basilar artery; conditions: 3 μM (FIG. 3, FIG. 4)
Method: Basilar arteries were removed from male rat (CD(SD)IGS, male, Charles River Japan, Inc., 8 weeks old-10 weeks old, 350-450 g) and quickly immersed in cooled Krebs-Henseleit solution. Removed basilar arteries were divided by about 3 mm width with ophthalmic scissors and made as ringed samples. Samples hung in micro tissue organ bath (MTOB-1: Preimetech Corp.) filled with Krebs-Henseleit solution (37° C.). They were loaded with about 0.2 g resting tension stabilized for about 60 minutes, and then constrictive movement was recorded on a recorder (linearcoda WR3320: Graphtec Corp.) through strain compression amplifier (AP-601G, Nihon Kohden) from micro tissue organ bath.

| SMILES | constriction of rat thoracic aorta [1] | constriction of canine basilar arteries [2] | constriction of canine renal arteries [3] | IC50 (human EDG-5) [µM] | IC50 (human EDG-3) [µM] | inhibitory effect on rabbit vasoconstrictive action by S1P [4] | flow rate of nutrient solution (corresponding the blood flow rate of coronary artery) (removed rat heart) | contractive force of heart muscle (removed rat heart) | inhibitory effect on vasoconstrictive action of canine basilar artery by S1P [2] | inhibitory effect on vasoconstrictive action of canine renal arteries by S1P [3] | IC50 (human EDG-1) [µM] | also measured |
| --- | --- | --- | --- | --- | --- | --- | --- | --- | --- | --- | --- | --- |
| CCCCCCCCCCCCC/C=C/[C@@H](O)[C@@H](N)COP(=O)(O)O [Example S1P, (2S,3R,4E)-2-amino-3-hydroxyoctadeca-4-enyl-1-phosphate] | constricted | constricted | constricted |  |  |  |  |  |  |  |  | effect of S1P on rat blood pressure (SD rat): increased; effect of S1P on contractive force of heart muscle (removed rat heart): dose-dependently decreased |
| Cc1nn(C)c2nc(NNC(=O)Nc3c(Cl)cncc3Cl)cc(C(C)C)c12 [compound (1), N-(1H-1,3-dimethyl-4-isopropylpyrazolo[3,4-b]pyridin-6-yl)amino-N′-(3,5-dichloropyridin-4-yl)urea] |  |  |  | 0.5 | > 10 | showed inhibitory effect | increased | increased | inhibited; also recorded: suppression | inhibited; also recorded: suppression | > 10 | inhibitory effect on vasoconstrictive action of canine thoracic aorta by S1P (canine thoracic aorta): showed inhibitory effect; inhibition of vasoconstrictive action of rat thoracic aorta by S1P ([1]; 10 μM test compound added an hour after S1P (10 μM)): specifically inhibited; also recorded: suppression; inhibition of vasoconstrictive action of rat thoracic aorta by phenylephrine ([1]; 10 μM test compound, phenylephrine 10 μM): did not inhibit; also recorded: not showing the suppression; inhibitory effect on vasoconstrictive action of rabbit thoracic aorta by S1P (rabbit thoracic aorta): showed inhibitory effect |
| O=C(Nc1cccc(C(F)(F)F)c1)N1CCC(O)(c2ccc(Br)cc2)CC1 [compound (2), 4-(4-bromophenyl)-4-hydroxy-N-(3-(trifluoromethyl)phenyl)-1-piperidinecarboxamide] |  |  |  | 0.4 | > 10 | showed inhibitory effect | increased | increased | inhibited; also recorded: suppression | inhibited; also recorded: suppression | > 10 | inhibitory effect on contraction of vein by S1P [5]: inhibitory effect; also recorded: suppression; inhibitory effect on vasoconstrictor action of rat removed basilar artery by S1P [6]: inhibitory effect; also recorded: suppression |
| CNC[C@H](O)c1cccc(O)c1 [phenylephrine] | constricted |  |  |  |  |  |  |  |  |  |  |  |
| NCCc1c[nH]c2ccc(O)cc12 [serotonin] |  | constricted | constricted |  |  |  |  |  |  |  |  |  |
